The target of experiment [1] is Fatty acid-binding protein, adipocyte (Homo sapiens, UniProt P15090).
For experiment [2], the target named is T1, Fatty acid-binding protein, heart (Homo sapiens, UniProt P05413).
Description: Inhibition of human FABP3 by 8-anilino-1-naphthalenesulfonic acid based fluorescence displacement assay
Experiment [3] deals with T1, Fatty acid-binding protein, heart. The experiment in a line: Binding affinity to human FABP3 by surface plasmon resonance assay. For orientation: Surface plasmon resonance follows binding to a sensor surface in real time, without labels.

Sequence of Fatty acid-binding protein, adipocyte (P15090 whole entry): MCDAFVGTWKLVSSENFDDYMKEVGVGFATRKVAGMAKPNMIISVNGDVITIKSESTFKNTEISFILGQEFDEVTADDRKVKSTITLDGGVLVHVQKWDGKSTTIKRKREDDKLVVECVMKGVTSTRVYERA
T1 sequence (P05413 whole entry): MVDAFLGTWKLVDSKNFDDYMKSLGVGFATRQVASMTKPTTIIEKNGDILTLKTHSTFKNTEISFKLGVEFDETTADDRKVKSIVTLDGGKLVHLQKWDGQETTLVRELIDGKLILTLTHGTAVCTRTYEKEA

As a reminder, the IC50 is the point on the concentration scale where inhibition reaches its midpoint. `O=C(O)CCCOc1ccccc1-c1cc(-c2ccc(Br)cc2)n(-c2ccccc2)n1`: the results for the IC50 in experiment [1] (read-out: IC50) and in experiment [2] were 9.51 µM and 224 µM, respectively.

As to `O=C(O)CCCCOc1ccccc1-c1cc(-c2ccc(Cl)cc2)n(-c2ccccc2)n1`, the IC50 is 74 µM in experiment [1] (read-out: IC50) and 243 µM in experiment [2].

Take `Cc1ccc(-c2cc(-c3ccccc3OCCCCC(=O)O)nn2-c2ccccc2)cc1`: the figures for the IC50 in experiment [1] (read-out: IC50) and in experiment [2] were 259 µM and more than 10000 µM, respectively.

Usually Kd stands for a measure of binding affinity in units of concentration. A high value points to a looser complex. The compound `O=C(O)CCCOc1ccccc1-c1cc(-c2ccccc2)n(-c2ccccc2)n1` registered a Kd in experiment [3] of 16.3 µM. In addition, the IC50 in experiment [1] (read-out: IC50) is 3.02 µM; in experiment [2], 2.01 µM.

Regarding `COc1ccc(-n2nc(-c3ccccc3OCCCC(=O)O)cc2-c2ccccc2)cc1`, the IC50 in experiment [1] (read-out: IC50) was found to be 13.6 µM; in experiment [2], 1.65 µM.

With `O=C(O)CCCOc1ccccc1-c1cc(-c2ccccc2)n(-c2cccc(Cl)c2)n1`, the IC50 in experiment [1] (read-out: IC50) stood at 2.5 µM.

Regarding `O=C(O)CCCCOc1ccccc1-c1cc(-c2ccccc2)n(-c2ccccc2)n1`, the IC50 in experiment [1] (read-out: IC50) was 6.39 µM; in experiment [2], more than 10000 µM.

`O=C(O)CCCOc1ccccc1-c1cc(-c2ccccc2)n(-c2ccc(F)cc2)n1`: the Kd in experiment [3] was 5.26 µM. The compound further displayed an IC50 in experiment [2] of 1.14 µM.

For `O=C(O)CCCOc1ccccc1-c1cc(-c2ccccc2)n(C2CCCC2)n1`, the IC50 in experiment [1] (read-out: IC50) worked out at 16.6 µM; in experiment [2], 6.03 µM.

Regarding `O=C(O)CCCOc1ccccc1-c1cc(-c2ccc(Cl)cc2)n(-c2ccccc2)n1`, the IC50 in experiment [1] (read-out: IC50) was 6.13 µM; in experiment [2] it was 21 µM.

`O=C(O)CCCCCCOc1ccccc1-c1cc(-c2ccc(Cl)cc2)n(-c2ccccc2)n1`: the IC50 was 31 µM in experiment [1] (read-out: IC50) and more than 10000 µM in experiment [2].

Take `O=C(O)COc1cccc(-c2ccccc2-c2cc(-c3ccccc3)n(-c3ccccc3)n2)c1`: the results for the IC50 in experiment [1] (read-out: IC50) and in experiment [2] were 0.987 µM and more than 10000 µM, respectively.

Consider `Cc1ccc(-c2cc(-c3ccccc3OCCCC(=O)O)nn2-c2ccccc2)cc1`, for which the IC50 is 5.41 µM in experiment [1] (read-out: IC50) and 4730 µM in experiment [2].

As for `O=C(O)CCCOc1ccccc1-c1cc(-c2ccccc2)n(-c2ccccc2Cl)n1`, the figures for the IC50 in experiment [1] (read-out: IC50) and in experiment [2] were 4.27 µM and 1.16 µM, respectively.

As to `CC(C)c1ccc(-n2nc(-c3ccccc3OCCCC(=O)O)cc2-c2ccccc2)cc1`, in experiment [1] (read-out: IC50), the IC50 is 10.3 µM.

For `O=C(O)CCCCOc1ccccc1-c1cc(-c2ccc(Br)cc2)n(-c2ccccc2)n1`, the IC50 in experiment [1] (read-out: IC50) came to 86 µM; in experiment [2] it was 22.3 µM.

On to `O=C(O)CCCOc1ccccc1-c1cc(-c2ccccc2)n(C2CCCCCC2)n1`, for which the IC50 in experiment [1] (read-out: IC50) came out at 15.5 µM; in experiment [2] it was 6.47 µM.

For the compound `O=C(O)CCCOc1ccccc1-c1cc(-c2ccccc2)n(-c2ccc(Cl)cc2)n1`, binding in experiment [3] was put at a Kd of 2.17 µM. Besides, the results for the IC50 in experiment [1] (read-out: IC50) and in experiment [2] were 4.32 µM and 0.733 µM, respectively.

Regarding `COc1ccccc1-n1nc(-c2ccccc2OCCCC(=O)O)cc1-c1ccccc1`, the IC50 result was “Not Active” in experiment [1] and 505 µM in experiment [2].

On to `O=C(O)COc1ccccc1-c1cc(-c2ccc(Cl)cc2)n(-c2ccccc2)n1`, for which the IC50 in experiment [1] (read-out: IC50) and in experiment [2] was more than 10000 µM in each case.

For `O=C(O)CCCOc1ccccc1-c1cc(-c2ccccc2)n(C2CCCCC2)n1`, the figures for the IC50 in experiment [1] (read-out: IC50) and in experiment [2] were 23.5 µM and 5.26 µM, respectively.

For the origin of these results see ChEMBL document CHEMBL2331161, “Structure-guided design, synthesis and in vitro evaluation of a series of pyrazole-based fatty acid binding protein (FABP) 3 ligands” (Bioorg Med Chem Lett, 2013).
